Drawing on PubChem BioAssay AID1963984 (Molecular Pharmacology Branch, DTP, NCI, 2024), this text covers viability, T/C for four compounds.
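Further: spheroids exposed to agents for seven days before readout; percent viability relative to DMSO vehicle control taken as 100%.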

The first assay concerns 233499-124-R-J3-PDC spheroids with HUVEC/MSC, viability. Briefly: Anticancer human tumor 233499-124-R-J3-PDC patient-derived colon adenocarcinoma cell line growth inhibition [PI3K]. As to conditions: second compound 0.0316 µM; first compound 3.16 µM; stronger effect = lower value. Summed up: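 Targeted small molecules plus PI3K inhibitors, half-log dose series from Cmax (default top 10 microM), were applied to heterotypic spheroids of cancer cells with HUVEC and MSCs. Viability indicated growth inhibition.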
As a reminder, the viability, T/C is the result in the treated group divided by that in the control group, in per cent. In the case of `CC(Cn1ccc(-c2ccc(C#N)c(Cl)c2)n1)NC(=O)c1cc(C(C)O)[nH]n1` (configuration not stated) + CC(Nc1ncnc2nc[nH]c12)c1cc2cccc(Cl)c2c(=O)n1-c1ccccc1, the viability, T/C is 109%.

As to `CC1(C)CCC(Nc2ncc(C(F)(F)F)c(-c3c[nH]c4c(P(C)(C)=O)c(C#N)ccc34)n2)CN1` (configuration not stated) + CC(Nc1ncnc2nc[nH]c12)c1cc2cccc(Cl)c2c(=O)n1-c1ccccc1, the viability, T/C was 25.2%.

The same assay, now with this note: second compound 0.0316 µM; first compound 10 µM; stronger effect = lower value.
`C#Cc1c(F)ccc2cc(O)cc(-c3ncc4c(N5CC6CCC(C5)N6)nc(OCC56CCCN5CC(F)C6)nc4c3F)c12` (configuration not stated) + CC(Nc1ncnc2nc[nH]c12)c1cc2cccc(Cl)c2c(=O)n1-c1ccccc1: the viability, T/C was 75.5%.

For `C=CC(=O)N1CCN(c2nc(=O)n(-c3c(C)ccnc3C(C)C)c3nc(-c4c(O)cccc4F)c(F)cc23)C(C)C1` (configuration not stated) + CC(Nc1ncnc2nc[nH]c12)c1cc2cccc(Cl)c2c(=O)n1-c1ccccc1, the viability, T/C was 91.8%.

For `CC(Cn1ccc(-c2ccc(C#N)c(Cl)c2)n1)NC(=O)c1cc(C(C)O)[nH]n1` (configuration not stated) + CC(Nc1ncnc2nc[nH]c12)c1cc2cccc(Cl)c2c(=O)n1-c1ccccc1, the viability, T/C is 75%.

As to `CC1(C)CCC(Nc2ncc(C(F)(F)F)c(-c3c[nH]c4c(P(C)(C)=O)c(C#N)ccc34)n2)CN1` (configuration not stated) + CC(Nc1ncnc2nc[nH]c12)c1cc2cccc(Cl)c2c(=O)n1-c1ccccc1, the viability, T/C is 20.1%.

Staying with this assay, now noted: second compound 0.1 µM; first compound 0.0316 µM; stronger effect = lower value.
Consider `C#Cc1c(F)ccc2cc(O)cc(-c3ncc4c(N5CC6CCC(C5)N6)nc(OCC56CCCN5CC(F)C6)nc4c3F)c12` (configuration not stated) + CC(Nc1ncnc2nc[nH]c12)c1cc2cccc(Cl)c2c(=O)n1-c1ccccc1, for which the viability, T/C was 113%.

Consider `C=CC(=O)N1CCN(c2nc(=O)n(-c3c(C)ccnc3C(C)C)c3nc(-c4c(O)cccc4F)c(F)cc23)C(C)C1` (configuration not stated) + CC(Nc1ncnc2nc[nH]c12)c1cc2cccc(Cl)c2c(=O)n1-c1ccccc1, for which the viability, T/C was 91%.

In the case of `CC(Cn1ccc(-c2ccc(C#N)c(Cl)c2)n1)NC(=O)c1cc(C(C)O)[nH]n1` (configuration not stated) + CC(Nc1ncnc2nc[nH]c12)c1cc2cccc(Cl)c2c(=O)n1-c1ccccc1, the viability, T/C is 98.2%.

Consider `CC1(C)CCC(Nc2ncc(C(F)(F)F)c(-c3c[nH]c4c(P(C)(C)=O)c(C#N)ccc34)n2)CN1` (configuration not stated) + CC(Nc1ncnc2nc[nH]c12)c1cc2cccc(Cl)c2c(=O)n1-c1ccccc1, for which the viability, T/C was 93%.

The assay is the same for the next values; noted with them: second compound 0.1 µM; first compound 0.1 µM; stronger effect = lower value.
Consider `C#Cc1c(F)ccc2cc(O)cc(-c3ncc4c(N5CC6CCC(C5)N6)nc(OCC56CCCN5CC(F)C6)nc4c3F)c12` (configuration not stated) + CC(Nc1ncnc2nc[nH]c12)c1cc2cccc(Cl)c2c(=O)n1-c1ccccc1, for which the viability, T/C is 114%.

Turning to `C=CC(=O)N1CCN(c2nc(=O)n(-c3c(C)ccnc3C(C)C)c3nc(-c4c(O)cccc4F)c(F)cc23)C(C)C1` (configuration not stated) + CC(Nc1ncnc2nc[nH]c12)c1cc2cccc(Cl)c2c(=O)n1-c1ccccc1, the viability, T/C is 87.4%.

On to `CC(Cn1ccc(-c2ccc(C#N)c(Cl)c2)n1)NC(=O)c1cc(C(C)O)[nH]n1` (configuration not stated) + CC(Nc1ncnc2nc[nH]c12)c1cc2cccc(Cl)c2c(=O)n1-c1ccccc1, for which the viability, T/C is 91.6%.

Consider `CC1(C)CCC(Nc2ncc(C(F)(F)F)c(-c3c[nH]c4c(P(C)(C)=O)c(C#N)ccc34)n2)CN1` (configuration not stated) + CC(Nc1ncnc2nc[nH]c12)c1cc2cccc(Cl)c2c(=O)n1-c1ccccc1, for which the viability, T/C is 50.4%.

Still in this assay, the particulars now being: second compound 0.1 µM; first compound 0.316 µM; stronger effect = lower value.
Regarding `C#Cc1c(F)ccc2cc(O)cc(-c3ncc4c(N5CC6CCC(C5)N6)nc(OCC56CCCN5CC(F)C6)nc4c3F)c12` (configuration not stated) + CC(Nc1ncnc2nc[nH]c12)c1cc2cccc(Cl)c2c(=O)n1-c1ccccc1, the viability, T/C was 81.7%.

As to `C=CC(=O)N1CCN(c2nc(=O)n(-c3c(C)ccnc3C(C)C)c3nc(-c4c(O)cccc4F)c(F)cc23)C(C)C1` (configuration not stated) + CC(Nc1ncnc2nc[nH]c12)c1cc2cccc(Cl)c2c(=O)n1-c1ccccc1, the viability, T/C was 92%.

Regarding `CC(Cn1ccc(-c2ccc(C#N)c(Cl)c2)n1)NC(=O)c1cc(C(C)O)[nH]n1` (configuration not stated) + CC(Nc1ncnc2nc[nH]c12)c1cc2cccc(Cl)c2c(=O)n1-c1ccccc1, the viability, T/C was 81.5%.

`CC1(C)CCC(Nc2ncc(C(F)(F)F)c(-c3c[nH]c4c(P(C)(C)=O)c(C#N)ccc34)n2)CN1` (configuration not stated) + CC(Nc1ncnc2nc[nH]c12)c1cc2cccc(Cl)c2c(=O)n1-c1ccccc1: the viability, T/C was 49%.

The same assay, now with this note: second compound 0.1 µM; first compound 1 µM; stronger effect = lower value.
Regarding `C#Cc1c(F)ccc2cc(O)cc(-c3ncc4c(N5CC6CCC(C5)N6)nc(OCC56CCCN5CC(F)C6)nc4c3F)c12` (configuration not stated) + CC(Nc1ncnc2nc[nH]c12)c1cc2cccc(Cl)c2c(=O)n1-c1ccccc1, the viability, T/C was 94.7%.

With `C=CC(=O)N1CCN(c2nc(=O)n(-c3c(C)ccnc3C(C)C)c3nc(-c4c(O)cccc4F)c(F)cc23)C(C)C1` (configuration not stated) + CC(Nc1ncnc2nc[nH]c12)c1cc2cccc(Cl)c2c(=O)n1-c1ccccc1, the viability, T/C was 79.8%.

`CC(Cn1ccc(-c2ccc(C#N)c(Cl)c2)n1)NC(=O)c1cc(C(C)O)[nH]n1` (configuration not stated) + CC(Nc1ncnc2nc[nH]c12)c1cc2cccc(Cl)c2c(=O)n1-c1ccccc1: the viability, T/C is 94.6%.

Turning to `CC1(C)CCC(Nc2ncc(C(F)(F)F)c(-c3c[nH]c4c(P(C)(C)=O)c(C#N)ccc34)n2)CN1` (configuration not stated) + CC(Nc1ncnc2nc[nH]c12)c1cc2cccc(Cl)c2c(=O)n1-c1ccccc1, the viability, T/C is 30.9%.

The same assay, now with this note: second compound 0.1 µM; first compound 3.16 µM; stronger effect = lower value.
Regarding `C#Cc1c(F)ccc2cc(O)cc(-c3ncc4c(N5CC6CCC(C5)N6)nc(OCC56CCCN5CC(F)C6)nc4c3F)c12` (configuration not stated) + CC(Nc1ncnc2nc[nH]c12)c1cc2cccc(Cl)c2c(=O)n1-c1ccccc1, the viability, T/C is 84%.

With `C=CC(=O)N1CCN(c2nc(=O)n(-c3c(C)ccnc3C(C)C)c3nc(-c4c(O)cccc4F)c(F)cc23)C(C)C1` (configuration not stated) + CC(Nc1ncnc2nc[nH]c12)c1cc2cccc(Cl)c2c(=O)n1-c1ccccc1, the viability, T/C was 88.1%.

With `CC(Cn1ccc(-c2ccc(C#N)c(Cl)c2)n1)NC(=O)c1cc(C(C)O)[nH]n1` (configuration not stated) + CC(Nc1ncnc2nc[nH]c12)c1cc2cccc(Cl)c2c(=O)n1-c1ccccc1, the viability, T/C is 68.8%.

As for `CC1(C)CCC(Nc2ncc(C(F)(F)F)c(-c3c[nH]c4c(P(C)(C)=O)c(C#N)ccc34)n2)CN1` (configuration not stated) + CC(Nc1ncnc2nc[nH]c12)c1cc2cccc(Cl)c2c(=O)n1-c1ccccc1, the viability, T/C is 29.8%.

The assay is the same for the next values; noted with them: second compound 0.1 µM; first compound 10 µM; stronger effect = lower value.
Take `C#Cc1c(F)ccc2cc(O)cc(-c3ncc4c(N5CC6CCC(C5)N6)nc(OCC56CCCN5CC(F)C6)nc4c3F)c12` (configuration not stated) + CC(Nc1ncnc2nc[nH]c12)c1cc2cccc(Cl)c2c(=O)n1-c1ccccc1: the viability, T/C was 73.2%.

Take `C=CC(=O)N1CCN(c2nc(=O)n(-c3c(C)ccnc3C(C)C)c3nc(-c4c(O)cccc4F)c(F)cc23)C(C)C1` (configuration not stated) + CC(Nc1ncnc2nc[nH]c12)c1cc2cccc(Cl)c2c(=O)n1-c1ccccc1: the viability, T/C was 96.8%.

As for `CC(Cn1ccc(-c2ccc(C#N)c(Cl)c2)n1)NC(=O)c1cc(C(C)O)[nH]n1` (configuration not stated) + CC(Nc1ncnc2nc[nH]c12)c1cc2cccc(Cl)c2c(=O)n1-c1ccccc1, the viability, T/C is 92.2%.

Regarding `CC1(C)CCC(Nc2ncc(C(F)(F)F)c(-c3c[nH]c4c(P(C)(C)=O)c(C#N)ccc34)n2)CN1` (configuration not stated) + CC(Nc1ncnc2nc[nH]c12)c1cc2cccc(Cl)c2c(=O)n1-c1ccccc1, the viability, T/C is 6.77%.

Still in this assay, the particulars now being: second compound 0.316 µM; first compound 0.0316 µM; stronger effect = lower value.
In the case of `C#Cc1c(F)ccc2cc(O)cc(-c3ncc4c(N5CC6CCC(C5)N6)nc(OCC56CCCN5CC(F)C6)nc4c3F)c12` (configuration not stated) + CC(Nc1ncnc2nc[nH]c12)c1cc2cccc(Cl)c2c(=O)n1-c1ccccc1, the viability, T/C was 112%.

`C=CC(=O)N1CCN(c2nc(=O)n(-c3c(C)ccnc3C(C)C)c3nc(-c4c(O)cccc4F)c(F)cc23)C(C)C1` (configuration not stated) + CC(Nc1ncnc2nc[nH]c12)c1cc2cccc(Cl)c2c(=O)n1-c1ccccc1: the viability, T/C is 81.1%.

As to `CC(Cn1ccc(-c2ccc(C#N)c(Cl)c2)n1)NC(=O)c1cc(C(C)O)[nH]n1` (configuration not stated) + CC(Nc1ncnc2nc[nH]c12)c1cc2cccc(Cl)c2c(=O)n1-c1ccccc1, the viability, T/C is 87.3%.

Regarding `CC1(C)CCC(Nc2ncc(C(F)(F)F)c(-c3c[nH]c4c(P(C)(C)=O)c(C#N)ccc34)n2)CN1` (configuration not stated) + CC(Nc1ncnc2nc[nH]c12)c1cc2cccc(Cl)c2c(=O)n1-c1ccccc1, the viability, T/C was 66.7%.

The same assay, now with this note: second compound 0.316 µM; first compound 0.1 µM; stronger effect = lower value.
As for `C#Cc1c(F)ccc2cc(O)cc(-c3ncc4c(N5CC6CCC(C5)N6)nc(OCC56CCCN5CC(F)C6)nc4c3F)c12` (configuration not stated) + CC(Nc1ncnc2nc[nH]c12)c1cc2cccc(Cl)c2c(=O)n1-c1ccccc1, the viability, T/C was 92.1%.

Turning to `C=CC(=O)N1CCN(c2nc(=O)n(-c3c(C)ccnc3C(C)C)c3nc(-c4c(O)cccc4F)c(F)cc23)C(C)C1` (configuration not stated) + CC(Nc1ncnc2nc[nH]c12)c1cc2cccc(Cl)c2c(=O)n1-c1ccccc1, the viability, T/C was 86.4%.

Turning to `CC(Cn1ccc(-c2ccc(C#N)c(Cl)c2)n1)NC(=O)c1cc(C(C)O)[nH]n1` (configuration not stated) + CC(Nc1ncnc2nc[nH]c12)c1cc2cccc(Cl)c2c(=O)n1-c1ccccc1, the viability, T/C is 101%.

Take `CC1(C)CCC(Nc2ncc(C(F)(F)F)c(-c3c[nH]c4c(P(C)(C)=O)c(C#N)ccc34)n2)CN1` (configuration not stated) + CC(Nc1ncnc2nc[nH]c12)c1cc2cccc(Cl)c2c(=O)n1-c1ccccc1: the viability, T/C is 46%.

Still in this assay, the particulars now being: second compound 0.316 µM; first compound 0.316 µM; stronger effect = lower value.
Regarding `C#Cc1c(F)ccc2cc(O)cc(-c3ncc4c(N5CC6CCC(C5)N6)nc(OCC56CCCN5CC(F)C6)nc4c3F)c12` (configuration not stated) + CC(Nc1ncnc2nc[nH]c12)c1cc2cccc(Cl)c2c(=O)n1-c1ccccc1, the viability, T/C is 105%.

On to `C=CC(=O)N1CCN(c2nc(=O)n(-c3c(C)ccnc3C(C)C)c3nc(-c4c(O)cccc4F)c(F)cc23)C(C)C1` (configuration not stated) + CC(Nc1ncnc2nc[nH]c12)c1cc2cccc(Cl)c2c(=O)n1-c1ccccc1, for which the viability, T/C was 87.4%.

Turning to `CC(Cn1ccc(-c2ccc(C#N)c(Cl)c2)n1)NC(=O)c1cc(C(C)O)[nH]n1` (configuration not stated) + CC(Nc1ncnc2nc[nH]c12)c1cc2cccc(Cl)c2c(=O)n1-c1ccccc1, the viability, T/C was 73.3%.

Take `CC1(C)CCC(Nc2ncc(C(F)(F)F)c(-c3c[nH]c4c(P(C)(C)=O)c(C#N)ccc34)n2)CN1` (configuration not stated) + CC(Nc1ncnc2nc[nH]c12)c1cc2cccc(Cl)c2c(=O)n1-c1ccccc1: the viability, T/C is 30.7%.
